Legend:
[1] = Solubility experiments used to determine the phase diagram of the crystalline forms; assay type: physicochemical; conditions: 25° C.; for water content of ethanol solution in contact with which the form is thermodynamically favored over the other forms: ethanol solutions saturated with the compound, compared with the dihydrate, anhydrous Form I and Form III
Protocol: Solubility experiments were used to determine the unique phase diagram shown in FIG. 5 for the various forms of 5,11-dihydro-11-ethyl-5-methyl-8-{2-{(1-oxido-4-quinolinyl)oxy}ethyl}-6H-dipyrido[3,2-b:2′,3′-e][1,4]diazepin-6-one. […] Additionally, anhydrous Form III is thermodynamically favored over the dihydrate and anhydrous Form I at 25° C. when in contact with ethanol solutions containing<˜2.7±0.5 wt % water.

[2] = Phase stability of crystalline forms at ambient / storage conditions; assay type: physicochemical
Excerpt: A first aspect of the present invention comprises the discovery of a dihydrate crystalline form of 5,11-dihydro-11-ethyl-5-methyl-8-{2-{(1-oxido-4-quinolinyl)oxy}ethyl}-6H-dipyrido[3,2-b:2′,3′-e][1,4]diazepin-6-one. […] The invention also comprises methods for making this dihydrate crystalline form.
(§1) We have further discovered that under proper conditions several anhydrous polymorphs of 5,11-dihydro-11-ethyl-5-methyl-8-{2-{(1-oxido-4-quinolinyl)oxy} ethyl}-6H-dipyrido[3,2-b:2′,3′-e][1,4]diazepin-6-one may be formed. […] Thus, the invention further includes anhydrous Form III of 5,11-dihydro-11-ethyl-5-methyl-8-{2-{(1-oxido-4-quinolinyl)oxy}ethyl}-6H-dipyrido[3,2-b:2′,3′-e][1,4]diazepin-6-one and methods for its manufacture.

[3] = Biological testing of plasma levels of crystalline forms; assay type: in vivo; conditions: compared with other crystalline forms of the drug
Excerpt: as §1

SMILES: CCN1c2ncc(CCOc3cc[n+]([O-])c4ccccc34)cc2C(=O)N(C)c2cccnc21 (hydrate or solvate) [dihydrate, 5,11-dihydro-11-ethyl-5-methyl-8-{2-{(1-oxido-4-quinolinyl)oxy}ethyl}-6H-dipyrido[3,2-b:2′,3′-e][1,4]diazepin-6-one dihydrate]
- melting point: 199 °C

SMILES: CCN1c2ncc(CCOc3cc[n+]([O-])c4ccccc34)cc2C(=O)N(C)c2cccnc21 [anhydrous Form III, 5,11-dihydro-11-ethyl-5-methyl-8-{2-{(1-oxido-4-quinolinyl)oxy}ethyl}-6H-dipyrido[3,2-b:2′,3′-e][1,4]diazepin-6-one Anhydrous Form III]
- thermodynamic preference between crystalline forms (phase diagram) [1]: thermodynamically preferred over anhydrous Form I
- water content of ethanol solution in contact with which the form is thermodynamically favored over the other forms [1]: < 2.7±0.5 wt % water
- phase stability ([2]; some tested ambient conditions): demonstrated phase stability
- plasma levels [3]: higher plasma levels than are attainable using other crystalline forms
- melting point: 198.2 °C

SMILES: CCN1c2ncc(CCOc3cc[n+]([O-])c4ccccc34)cc2C(=O)N(C)c2cccnc21 [dihydrate, 5,11-dihydro-11-ethyl-5-methyl-8-{2-{(1-oxido-4-quinolinyl)oxy}ethyl}-6H-dipyrido[3,2-b:2′,3′-e][1,4]diazepin-6-one dihydrate]
- water content of ethanol solution in contact with which the form is thermodynamically favored over the other forms ([1]; dihydrate): > 2.7 wt % water
- thermodynamic or kinetic preference on storage ([2]; temperatures and humidities most likely encountered on storage of drug substance or drug product, compared with the trihydrate): thermodynamically or kinetically favored

Source: patent publication US20050222134A1, “Crystalline forms of 5, 11-dihydro-11-ethyl-5-methyl-8-{2-{(1-oxido-4-quinolinyl)oxy}ethyl}-6H-dipyrido[3,2-b:2',3'-e] [1,4]diazepin-6-one” (Boehringer Ingelheim International GmbH, priority 2004, published 2005)
